Key:
Ub(G76V)-GFP, U2OS cells = assay: QIBC of Ub(G76V)-GFP after siRNA; type: cell-based, human; conditions: siRNA 20 nM, QIBC >10,000 cells
Experimental: (§1) U2OS (catalog no. HTB-96) cells were obtained from ATCC. HEK293-EBNA1-6E cells were a kind gift from Yves Durocher (National Research Council Canada, Montreal, Canada). All mammalian cell lines were cultured under standard conditions at 37 °C and 5% CO2 in DMEM (Thermo) supplemented with 10% FBS (v/v) and penicillin-streptomycin (Thermo). Recombination cloning-compatible U2OS cells were generated using the Flp-In T-Rex Core Kit (Thermo) according to the manufacturer’s instructions and maintained under selection using Blasticidin (Invivogen) and Zeocin (Thermo). To generate cell lines stably expressing GFP-VCF1, U2OS Flp-In T-Rex cells (Thermo) were co-transfected with GFP-VCF1 constructs and pOG44 (Thermo) plasmids, followed by selection with Hygromycin (Invitrogen). Single clones were carefully screened for uniform expression of ectopic GFP-VCF1 at low levels and maintained under selection with Blasticidin and Hygromycin. To induce GFP-VCF1 expression, cells were treated with Doxycycline (DOX) (0.5 µg/ml) for 16 h. U2OS cell lines stably expressing Ub(G76V)-GFP or Ub(G76V)-GFP-20AA were described previously. A U2OS cell line stably expressing Ub(G76V)-GFP-NES was generated under G418 (Invivogen) selection. […]
Mammalian cells grown on coverslips were fixed in formalin buffer (VWR) for 15 min at room temperature (RT). […] Quantitative image-based cytometry (QIBC) was performed as described. […]

[1] = tested on: GFP-VCF1 WT interactome, U2OS cells; assay: GFP IP mass spectrometry of VCF1-interacting proteins, non-denaturing EBC buffer (+DOX/-DOX); type: binding, human
Experimental: (§2) U2OS (catalog no. HTB-96) cells were obtained from ATCC. HEK293-EBNA1-6E cells were a kind gift from Yves Durocher (National Research Council Canada, Montreal, Canada). All mammalian cell lines were cultured under standard conditions at 37 °C and 5% CO2 in DMEM (Thermo) supplemented with 10% FBS (v/v) and penicillin-streptomycin (Thermo). Recombination cloning-compatible U2OS cells were generated using the Flp-In T-Rex Core Kit (Thermo) according to the manufacturer’s instructions and maintained under selection using Blasticidin (Invivogen) and Zeocin (Thermo). To generate cell lines stably expressing GFP-VCF1, U2OS Flp-In T-Rex cells (Thermo) were co-transfected with GFP-VCF1 constructs and pOG44 (Thermo) plasmids, followed by selection with Hygromycin (Invitrogen). Single clones were carefully screened for uniform expression of ectopic GFP-VCF1 at low levels and maintained under selection with Blasticidin and Hygromycin. To induce GFP-VCF1 expression, cells were treated with Doxycycline (DOX) (0.5 µg/ml) for 16 h. U2OS cell lines stably expressing Ub(G76V)-GFP or Ub(G76V)-GFP-20AA were described previously. A U2OS cell line stably expressing Ub(G76V)-GFP-NES was generated under G418 (Invivogen) selection. Clones with low baseline GFP expression were visually screened for low basal GFP expression. All cell lines used in this study were regularly tested negative for mycoplasma infection and were not authenticated.
(§3) Immunoblotting was performed as previously described. Immunoprecipitation (IP) of HA-tagged proteins was performed using Anti-HA Affinity matrix (Roche) under denaturing conditions, unless otherwise stated. GFP-trap and […] Fab-trap agarose (Chromotek) were used according to manufacturer’s instructions. Cell lysis was performed using RIPA buffer (140 mM NaCl; 10 mM Tris-HCl, pH 8.0; 0.1% sodium deoxycholate; 1% Triton X-100; 0.1% SDS; 1 mM EDTA; 0.5 mM EGTA) or EBC buffer (50 mM Tris, pH 7.5; 150 mM NaCl; 1 mM EDTA; 0.5% NP-40, 1 mM DTT). IPs were washed in non-denaturing buffer (50 mM Tris-HCl, pH 7.5; 150 mM NaCl; 0.5 mM EDTA). Cell lysis and IP under partially denaturing conditions were performed using denaturing buffer (20 mM Tris-HCl, pH 7.5; 50 mM NaCl; 0.5% sodium deoxycholate; 0.5% NP-40; 0.5% SDS; 1 mM EDTA). All lysis and wash buffers were supplemented with 1 mM fresh PMSF Protease Inhibitor (Thermo), complete EDTA-free protease inhibitor Cocktail Tablets (Roche), 1.25 mM N-ethylmaleimide (Sigma) and 50 µM PR-619 (Calbiochem).
(§4) GFP-Trap agarose (Chromotek) pulldowns were subjected to partial on-bead digestion for peptide elution, by addition of 100 µl of elution buffer (50 mM Tris, pH 7.5; 2 M urea; 2 mM DTT; 20 µg/ml trypsin) and incubation at 37 °C for 30 min. To carry out alkylation, 25 mM CAA was added to the samples, which were then left to digest overnight at room temperature. Digestion was halted by introducing 1% TFA. Purification and desalting of peptides were done using SDB-RPS StageTips. This process required preparing two layers of SDB-RPS with 100 µl of wash buffer (0.2% TFA in H2O), onto which the peptides were loaded. After centrifugation for 5 min at 500 × g, peptides were washed using 150 µl wash buffer, eluted with 50 µl elution buffer (80% ACN; 1% ammonia) and vacuum-dried.
(§5) Liquid chromatography-mass spectrometry (LC-MS) analysis was conducted using an EASY-nLC-1200 system (Thermo Fisher Scientific), coupled with a timsTOF Pro spectrometer and a nano-electrospray ion source (Bruker Daltonik). […]

[2] = tested on: GFP-VCF1 WT / N167A interactome, U2OS cells; assay: GFP IP mass spectrometry, comparison of VCF1 WT and N167A interactomes (WT/N167A); type: binding, human; conditions: GFP-VCF1 WT / N167A IPs, partially denaturing RIPA buffer
Experimental: as §2, §3, §4, §5

p97 = assay: GFP IP of GFP-VCF1 alanine mutants from U2OS cells; type: binding, human; conditions: full-length GFP-VCF1, U2OS
Experimental: as §3

[3] = tested on: p97 (His6-p97 WT and N-domain mutants); assay: Peptide/protein pulldown with purified WT or mutant His6-p97 (VRM, VIM, VBM, p47); type: binding, human; conditions: peptides on StrepTactin agarose (p47: protein), purified WT or mutant His6-p97, RIPA wash
Experimental: All in vitro binding experiments were performed in EBC or RIPA buffer as indicated. Recombinant Biotin-tagged K48-linked poly-ubiquitin chains (2−7) and K48-linked poly-ubiquitin chains (2−16) were purchased from R&D Systems and Enzo Life Science, respectively. Recombinant proteins were incubated with Strep-Tactin Sepharose (IBA), Glutathione agarose (Gold Biotechnology) or […] Fab-trap agarose (ChromoTek) overnight on an end-over-end rotator at 4 °C, washed six times with EBC or RIPA buffer, and resuspended in 2×Laemmli sample buffer. For p97, VCF1 or p47 pulldowns, antibodies (0.5 µg/sample) were coupled to agarose beads, incubated with recombinant proteins or cell lysates and washed with the indicated buffer. To assess p97-UFD1-NPL4 binding to ubiquitylated proteins in total cell extracts, U2OS cells were lysed in EBC buffer supplemented with protease and phosphatase inhibitors, sonicated and incubated on ice for 10 min. Lysates were cleared by centrifugation for 10 min at 16,100 × g. […]
Peptides were coupled to beads for a minimum of 2 h at 4 °C with rotation, blocked in BSA (New England Biolabs) and washed three times for 1 min, before incubation overnight at 4 °C with whole cell lysate or purified proteins. Beads were then washed three times for 1 min and bound material was eluted in 2×Laemmli sample buffer and analyzed by immunoblotting.

[4] = tested on: GFP-VCF1 WT interactome, U2OS cells; assay: GFP IP mass spectrometry of VCF1-interacting proteins, partially denaturing RIPA buffer (+DOX/-DOX); type: binding, human
Experimental: as §1, with “selection. Clones with low baseline GFP expression were visually screened for low basal GFP expression.” for “selection.”

[5] = tested on: p97 with poly-ubiquitylated mEos3.2; assay: In vitro p97 unfoldase assay (mEos3.2); type: biochemical, human; conditions: p97 100 nM hexamer, VCF1 300 nM, substrate 35 nM, 37 °C
Experimental: Di-ubiquitin-fused mEos3.2 fluorescent protein (diUb-mEos3.2) and ubiquitylation cascade proteins mUbe1, gpc78-ubc7 fusion and ubiquitin were recombinantly expressed in E. coli and purified as described previously. diUb-mEos3.2 substrate was enzymatically polyubiquitylated as described previously. […] The unfolding activity of p97 was monitored in vitro by measuring the decrease in diUb^n-mEos3.2 fluorescence. For this, diUb^n-mEos3.2 (35 nM), p97 (100 nM hexamer), UFD1-NPL4 (500 nM) and VCF1 (300 nM) were mixed as indicated in Eos assay buffer (50 mM HEPES, pH 7.5; 150 mM KCl; 2 mM MgCl2; 5% glycerol; 1 mM DTT) and pre-warmed to 37 °C for 5 min before ATP (2 mM) was added to start the reaction. Unfolding of red mEos3.2 fluorescence was measured every 15 s in a Varian Cary Eclipse spectrofluorometer (excitation: 500 nm; emission: 520 nm) and normalized to the first value after addition of ATP.

[6] = tested on: p97-UFD1-NPL4 binding to ubiquitylated proteins; assay: FLAG IP: p97-UFD1-NPL4 binding to ubiquitylated proteins in U2OS cell extracts; type: biochemical, human; conditions: U2OS total cell extracts, EBC buffer
Experimental: (§6) All in vitro binding experiments were performed in EBC or RIPA buffer as indicated. Recombinant Biotin-tagged K48-linked poly-ubiquitin chains (2−7) and K48-linked poly-ubiquitin chains (2−16) were purchased from R&D Systems and Enzo Life Science, respectively. Recombinant proteins were incubated with Strep-Tactin Sepharose (IBA), Glutathione agarose (Gold Biotechnology) or […] Fab-trap agarose (ChromoTek) overnight on an end-over-end rotator at 4 °C, washed six times with EBC or RIPA buffer, and resuspended in 2×Laemmli sample buffer. For p97, VCF1 or p47 pulldowns, antibodies (0.5 µg/sample) were coupled to agarose beads, incubated with recombinant proteins or cell lysates and washed with the indicated buffer. To assess p97-UFD1-NPL4 binding to ubiquitylated proteins in total cell extracts, U2OS cells were lysed in EBC buffer supplemented with protease and phosphatase inhibitors, sonicated and incubated on ice for 10 min. Lysates were cleared by centrifugation for 10 min at 16,100 × g. Cell lysate (40 µg) was added to recombinant proteins in EBC buffer, incubated overnight on the rotator with […] Fab-trap agarose (ChromoTek), and beads were washed six times.

[7] = tested on: p97-UFD1-NPL4 binding to K48-Ub2-7; assay: FLAG IP: p97-UFD1-NPL4 binding to K48-linked ubiquitin chains, purified proteins; type: biochemical, human; conditions: purified proteins, FLAG IP
Experimental: as §6

Q: Which “effect on Ub(G76V)-GFP level” value (Ub(G76V)-GFP, U2OS cells) does the source give for 5’-AGCCAGCUCUUCCAUCUUA-3’ [p47 siRNA] here?
A: The value was “had no effect”.

Q: For 40S ribosomal protein S29 [RPS29], which “Relative protein level (log2) WT/noDox” value [1] is on record?
A: The value was 2.611 log2.

Q: With 60S ribosomal protein L19 [RPL19] as the substance, how does the “Relative protein level (log2) WT/noDox” value [1] read?
A: The value was 2.902 log2.

Q: AHNAK was tested. Which “Relative protein level (log2) WT/MUT” value [2] did it give?
A: Its value is 2.811 log2.

Q: With FLNA as the substance, how does the “Relative protein level (log2) WT/MUT” value [2] read?
A: Its value is 3.526 log2.

Q: Which “Relative protein level (log2) WT/MUT” value [2] does the source give for G6PD here?
A: Its value is 4.291 log2.

Q: For “H174: alanine mutant of residue H174 in full-length VCF1”, which “effect of alanine scan on p97 binding” value (p97) is on record?
A: Its value is “essential for VCF1 binding to p97”.

Q: For “Histone H3.1 [HIST1H3A;HIST2H3A;HIST3H3;H3F3A;H3F3B]”, which “Relative protein level (log2) WT/noDox” value [1] is on record?
A: The value was 5.652 log2.

Q: Which “effect of alanine scan on p97 binding” value (p97) does the source give for “L170: alanine mutant of residue L170 in full-length VCF1” here?
A: Its value is “essential for VCF1 binding to p97”.

Q: How did the “dependence of binding on p97 Y143” value [3] turn out when “NLTSEELRKRREAYFEKQQQK [VBM, biotinylated VBM peptide of ATXN3 aa275-295]” was run?
A: Its value is “required for binding to all three motifs”.

Q: “PTPDLEEKRAKLAEAAERRQKEAAS [VIM, biotinylated VIM peptide of SVIP aa14-39]” was tested. Which “dependence of binding on p97 Y143” value [3] did it give?
A: The value was “required for binding to all three motifs”.

Q: How did the “Relative protein level (log2) WT/noDox” value [4] turn out when Protein FAM104A was run?
A: Its value is 3.522 log2.

Q: And the “Relative protein level (log2) WT/noDox” value [1]?
A: Its value is 4.7326 log2.

Q: For “Transitional endoplasmic reticulum ATPase [VCP]”, which “Relative protein level (log2) WT/noDox” value [4] is on record?
A: The value was 4.192 log2.

Q: And the “Relative protein level (log2) WT/MUT” value [2]?
A: Its value is 7.367 log2.

Q: And the “Relative protein level (log2) WT/noDox” value [1]?
A: The value was 3.764 log2.

Q: “VCF1-p97 complex: complex of VCF1 and p97” was tested. Which “unfolding of poly-ubiquitylated mEos3.2 without UFD1-NPL4” value [5] did it give?
A: The value was “unable to unfold a poly-ubiquitylated fluorescent model substrate (mEos3.2)”.

Q: Which results are given for “mutation of the VRM: VCF1 with mutated VRM (N167A by Fig. 5c reply)”?
A: effect on p97-UFD1-NPL4 binding to ubiquitylated proteins [6]: abrogated; effect on p97-UFD1-NPL4 binding to K48 ubiquitin chains [7]: abrogated
